Source: the supplement of paper PMC12463676, “Small-molecule dissolution of stress granules by redox modulation benefits ALS models” (Nature Chemical Biology, 2025)

Legend:
lipoamide = compound: NC(=O)CCCCC1CCSS1 [lipoamide]; assay: thermal stability z-score vs DMSO; higher = more thermally stabilized by treatment; conditions: HeLa, lipoamide concentration 100 µM
Experimental: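 Cellular thermal proteome profiling in HeLa cells. Cells were treated with 100 µM lipoamide for 1 h, with or without 1 mM arsenate for a further 1 h, then heated to ten temperatures (37-66.3 °C), and soluble protein was quantified by TMT mass spectrometry relative to 0.1% DMSO controls. The thermal stability score (sum of log2 fold changes minus the abundance score) was transformed to a z-score; mean of n = 3 experiments.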

potassium arsenate = compound: O=[As]([O-])(O)O.[K+] [potassium arsenate]; assay: as above; conditions: HeLa; arsenate concentration 1 mM
Experimental: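 Cellular thermal proteome profiling in HeLa cells treated with 1 mM arsenate for 1 h (DMSO pretreatment), heated to ten temperatures (37-66.3 °C). Soluble protein was quantified by TMT mass spectrometry relative to DMSO controls; the thermal stability score was transformed to a z-score; mean of n = 3 experiments.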

[1] = arsenate co-treatment: 1 mM arsenate 1 h
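Note: each temperature applied for 3 min, abundance score taken as mean log2 fold change at the two lowest temperatures, z-score obtained by mean subtraction and division by SD.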

Chain of UniProt Q96IZ7 (Q96IZ7 whole entry): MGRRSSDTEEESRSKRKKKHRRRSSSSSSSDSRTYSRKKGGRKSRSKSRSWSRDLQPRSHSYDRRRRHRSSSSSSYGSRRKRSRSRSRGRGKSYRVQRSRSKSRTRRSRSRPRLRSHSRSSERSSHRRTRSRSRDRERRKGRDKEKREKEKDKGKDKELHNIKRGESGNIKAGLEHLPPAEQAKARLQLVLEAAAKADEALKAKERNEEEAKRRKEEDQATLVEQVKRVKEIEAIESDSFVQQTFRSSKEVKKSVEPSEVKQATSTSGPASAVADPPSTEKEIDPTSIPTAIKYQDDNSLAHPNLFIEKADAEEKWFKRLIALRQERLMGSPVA
Chain of UniProt P31949 (P31949 whole entry): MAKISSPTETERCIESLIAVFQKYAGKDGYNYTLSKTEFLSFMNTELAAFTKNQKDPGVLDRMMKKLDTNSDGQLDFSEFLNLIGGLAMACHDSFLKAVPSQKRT
Chain of UniProt Q8IZ73 (Q8IZ73 whole entry): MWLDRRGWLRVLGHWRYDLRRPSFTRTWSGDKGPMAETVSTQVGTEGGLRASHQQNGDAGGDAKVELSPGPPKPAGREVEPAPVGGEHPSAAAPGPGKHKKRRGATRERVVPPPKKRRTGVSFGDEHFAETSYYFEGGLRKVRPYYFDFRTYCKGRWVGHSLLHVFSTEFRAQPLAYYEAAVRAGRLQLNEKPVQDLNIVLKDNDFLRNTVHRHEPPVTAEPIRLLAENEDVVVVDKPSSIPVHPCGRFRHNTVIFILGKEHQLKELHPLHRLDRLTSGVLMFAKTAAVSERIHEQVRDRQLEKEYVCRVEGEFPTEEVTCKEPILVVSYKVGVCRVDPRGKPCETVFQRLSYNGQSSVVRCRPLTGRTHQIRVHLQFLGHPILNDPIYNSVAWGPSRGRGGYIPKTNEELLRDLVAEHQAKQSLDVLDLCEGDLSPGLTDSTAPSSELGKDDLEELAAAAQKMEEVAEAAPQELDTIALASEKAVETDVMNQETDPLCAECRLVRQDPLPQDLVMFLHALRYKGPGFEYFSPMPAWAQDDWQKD
Chain of UniProt Q9P2E9 (Q9P2E9 whole entry): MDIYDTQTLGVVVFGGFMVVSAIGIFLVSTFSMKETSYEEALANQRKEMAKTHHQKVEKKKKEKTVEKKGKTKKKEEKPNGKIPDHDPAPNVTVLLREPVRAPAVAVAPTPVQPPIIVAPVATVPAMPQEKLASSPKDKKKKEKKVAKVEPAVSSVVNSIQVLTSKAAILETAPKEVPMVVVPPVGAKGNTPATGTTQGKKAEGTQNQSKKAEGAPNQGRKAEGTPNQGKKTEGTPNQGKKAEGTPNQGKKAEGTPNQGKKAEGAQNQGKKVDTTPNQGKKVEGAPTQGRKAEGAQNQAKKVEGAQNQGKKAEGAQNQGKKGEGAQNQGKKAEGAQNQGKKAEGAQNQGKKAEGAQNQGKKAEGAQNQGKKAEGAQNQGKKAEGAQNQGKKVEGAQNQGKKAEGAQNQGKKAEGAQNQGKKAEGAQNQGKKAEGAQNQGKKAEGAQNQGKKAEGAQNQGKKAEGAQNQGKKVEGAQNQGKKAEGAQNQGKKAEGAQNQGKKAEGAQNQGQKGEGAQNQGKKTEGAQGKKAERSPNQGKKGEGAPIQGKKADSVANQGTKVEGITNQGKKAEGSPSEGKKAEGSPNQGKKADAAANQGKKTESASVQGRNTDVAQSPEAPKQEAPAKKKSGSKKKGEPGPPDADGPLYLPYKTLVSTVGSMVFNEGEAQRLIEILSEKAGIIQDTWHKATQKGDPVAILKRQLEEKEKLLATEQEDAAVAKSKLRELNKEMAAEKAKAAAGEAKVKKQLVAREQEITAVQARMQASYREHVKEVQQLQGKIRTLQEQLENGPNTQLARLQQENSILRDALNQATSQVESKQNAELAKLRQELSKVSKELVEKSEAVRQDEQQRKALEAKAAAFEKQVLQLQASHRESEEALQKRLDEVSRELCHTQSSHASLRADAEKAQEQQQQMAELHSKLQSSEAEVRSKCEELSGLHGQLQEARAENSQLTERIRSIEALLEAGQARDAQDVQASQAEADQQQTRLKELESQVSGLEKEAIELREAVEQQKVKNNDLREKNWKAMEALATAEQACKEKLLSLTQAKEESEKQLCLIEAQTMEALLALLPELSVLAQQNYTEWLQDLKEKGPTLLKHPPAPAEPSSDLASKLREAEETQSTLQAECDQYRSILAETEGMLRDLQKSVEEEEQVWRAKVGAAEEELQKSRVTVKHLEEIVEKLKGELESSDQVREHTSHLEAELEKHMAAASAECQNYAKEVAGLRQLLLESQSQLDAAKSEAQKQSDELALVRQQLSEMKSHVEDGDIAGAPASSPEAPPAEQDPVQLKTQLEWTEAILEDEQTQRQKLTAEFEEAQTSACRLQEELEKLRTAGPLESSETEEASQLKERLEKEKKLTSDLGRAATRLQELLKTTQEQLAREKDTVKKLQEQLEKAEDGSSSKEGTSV
Chain of UniProt Q9NYV6 (Q9NYV6 whole entry): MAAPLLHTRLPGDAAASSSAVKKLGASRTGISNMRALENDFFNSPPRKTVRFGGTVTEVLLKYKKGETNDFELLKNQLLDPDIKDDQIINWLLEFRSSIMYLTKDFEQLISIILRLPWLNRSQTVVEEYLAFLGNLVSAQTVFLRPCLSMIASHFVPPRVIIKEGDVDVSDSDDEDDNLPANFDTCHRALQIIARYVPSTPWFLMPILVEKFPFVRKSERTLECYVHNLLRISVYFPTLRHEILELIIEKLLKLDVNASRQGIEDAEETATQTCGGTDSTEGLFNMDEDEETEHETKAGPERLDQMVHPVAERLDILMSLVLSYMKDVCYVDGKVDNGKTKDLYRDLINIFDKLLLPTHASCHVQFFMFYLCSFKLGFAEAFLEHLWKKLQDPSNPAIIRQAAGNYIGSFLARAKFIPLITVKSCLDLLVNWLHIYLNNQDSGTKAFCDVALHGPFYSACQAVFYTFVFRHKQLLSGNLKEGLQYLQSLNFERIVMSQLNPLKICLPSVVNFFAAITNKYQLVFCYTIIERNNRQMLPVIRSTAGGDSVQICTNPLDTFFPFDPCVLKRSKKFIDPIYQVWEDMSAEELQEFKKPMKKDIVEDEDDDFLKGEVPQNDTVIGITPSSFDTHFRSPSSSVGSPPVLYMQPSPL
Chain of UniProt Q86UN3 (Q86UN3 whole entry): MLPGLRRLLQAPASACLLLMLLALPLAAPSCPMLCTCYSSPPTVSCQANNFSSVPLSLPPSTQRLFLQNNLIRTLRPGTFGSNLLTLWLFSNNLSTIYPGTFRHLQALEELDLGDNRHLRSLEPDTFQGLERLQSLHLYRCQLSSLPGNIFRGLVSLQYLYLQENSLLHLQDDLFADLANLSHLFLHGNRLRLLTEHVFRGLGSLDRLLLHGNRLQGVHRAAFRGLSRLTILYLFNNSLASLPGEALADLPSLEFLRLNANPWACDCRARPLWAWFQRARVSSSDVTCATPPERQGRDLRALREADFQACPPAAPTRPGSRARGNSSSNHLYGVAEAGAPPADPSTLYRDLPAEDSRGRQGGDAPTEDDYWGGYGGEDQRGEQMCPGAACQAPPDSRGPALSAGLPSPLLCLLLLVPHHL
Chain of UniProt P31350 (P31350 whole entry): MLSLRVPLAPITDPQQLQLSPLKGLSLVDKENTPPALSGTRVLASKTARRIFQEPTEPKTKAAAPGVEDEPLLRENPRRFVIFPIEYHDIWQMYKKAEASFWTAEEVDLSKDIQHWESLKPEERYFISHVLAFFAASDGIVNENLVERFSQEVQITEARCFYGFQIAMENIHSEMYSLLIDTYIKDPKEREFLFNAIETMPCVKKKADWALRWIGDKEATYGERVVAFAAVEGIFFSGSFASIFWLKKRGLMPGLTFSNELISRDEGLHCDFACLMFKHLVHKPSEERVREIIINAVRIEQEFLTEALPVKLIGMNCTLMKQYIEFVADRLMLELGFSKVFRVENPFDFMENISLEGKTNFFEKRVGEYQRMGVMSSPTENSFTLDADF
Chain of UniProt Q9UBE0 (Q9UBE0 whole entry): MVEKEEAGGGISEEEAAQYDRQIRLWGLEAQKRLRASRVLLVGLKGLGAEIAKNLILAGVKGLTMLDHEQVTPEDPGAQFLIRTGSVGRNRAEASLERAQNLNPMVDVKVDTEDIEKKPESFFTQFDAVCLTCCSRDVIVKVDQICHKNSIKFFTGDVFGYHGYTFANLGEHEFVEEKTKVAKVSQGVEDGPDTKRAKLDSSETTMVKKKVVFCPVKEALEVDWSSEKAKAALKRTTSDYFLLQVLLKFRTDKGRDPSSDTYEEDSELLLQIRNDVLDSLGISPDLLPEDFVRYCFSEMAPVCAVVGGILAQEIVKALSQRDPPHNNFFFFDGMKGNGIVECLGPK
Chain of UniProt Q96FQ6 (Q96FQ6 whole entry): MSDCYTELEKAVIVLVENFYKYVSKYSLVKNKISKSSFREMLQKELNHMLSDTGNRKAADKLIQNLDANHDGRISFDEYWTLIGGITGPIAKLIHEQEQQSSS
Chain of UniProt O00442 (O00442 whole entry): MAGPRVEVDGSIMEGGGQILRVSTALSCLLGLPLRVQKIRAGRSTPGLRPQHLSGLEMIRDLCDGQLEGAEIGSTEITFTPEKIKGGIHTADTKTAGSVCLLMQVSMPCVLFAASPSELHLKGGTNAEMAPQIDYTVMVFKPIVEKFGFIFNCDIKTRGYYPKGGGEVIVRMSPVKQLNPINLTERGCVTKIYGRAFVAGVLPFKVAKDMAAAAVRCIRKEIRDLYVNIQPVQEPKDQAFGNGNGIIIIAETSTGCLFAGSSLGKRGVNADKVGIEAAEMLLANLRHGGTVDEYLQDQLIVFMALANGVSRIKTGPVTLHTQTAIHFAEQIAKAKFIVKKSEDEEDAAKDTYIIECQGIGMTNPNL
Chain of UniProt Q9Y3B9 (Q9Y3B9 whole entry): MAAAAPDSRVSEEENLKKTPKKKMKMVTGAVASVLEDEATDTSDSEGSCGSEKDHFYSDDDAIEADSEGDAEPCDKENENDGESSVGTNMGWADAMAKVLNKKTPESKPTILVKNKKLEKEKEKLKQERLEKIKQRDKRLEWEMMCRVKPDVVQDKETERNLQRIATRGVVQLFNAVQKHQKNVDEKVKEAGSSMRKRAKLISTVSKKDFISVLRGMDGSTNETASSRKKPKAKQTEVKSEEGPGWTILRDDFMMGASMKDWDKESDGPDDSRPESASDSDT

Target	thermal stability z-score (lipoamide; [1])	thermal stability z-score (lipoamide; arsenate co-treatment: none)	thermal stability z-score (potassium arsenate)
RPS20 (UniProt P60866)	1.14	1.14	-0.0402
RPS21 (UniProt P63220)	0.253	0.512	-0.196
RPS23 (UniProt P62266)	-0.0441	0.207	-0.0437
RPS24 (UniProt P62847)	0.103	-0.101	-0.971
RPS25 (UniProt P62851)	0.792	0.586	-0.573
RPS26 (UniProt P62854)	0.0208	0.263	-0.743
RPS27A (UniProt P62979)	0.106	-0.431	-1.18
RPS28 (UniProt P62857)	0.574	0.243	-0.0195
RPS29 (UniProt P62273)	1.14	1.17	-0.415
RPSA (UniProt P08865)	0.555	0.847	-1.42
RPTOR (UniProt Q8N122)	0.0585	0.132	0.227
RPUSD2 (UniProt Q8IZ73)	-0.528	0.461	0.29
RPUSD3 (UniProt Q6P087)	0.12	0.0857	0.085
RPUSD4 (UniProt Q96CM3)	-0.196	-1.67	-0.998
RQCD1 (UniProt Q92600)	-0.57	-0.143	0.74
RRAGC (UniProt Q9HB90)	0.182	-0.182	-0.786
RRAS2 (UniProt P62070)	0.129	0.0499	0.544
RRAS (UniProt P10301)	0.632	0.351	0.844
RRBP1 (UniProt Q9P2E9)	0.226	0.25	-0.458
RRM1 (UniProt P23921)	0.219	0.204	0.11
RRM2 (UniProt P31350)	0.385	0.731	0.674
RRM2B (UniProt Q7LG56)	0.945	0.415	-0.703
RRN3 (UniProt Q9NYV6)	-0.321	-0.104	-2.42
RRP1 (UniProt P56182)	0.0258	0.131	0.671

Target	thermal stability z-score (lipoamide; [1])	thermal stability z-score (lipoamide; arsenate co-treatment: none)	thermal stability z-score (potassium arsenate)
RRP1B (UniProt Q14684)	0.131	0.133	-0.0634
RRP7A (UniProt Q9Y3A4)	0.108	-0.213	-0.216
RRP9 (UniProt O43818)	-0.195	0.108	-0.755
RRP12 (UniProt Q5JTH9)	0.612	0.819	0.0662
RRP15 (UniProt Q9Y3B9)	-0.279	-0.438	-0.817
RRS1 (UniProt Q15050)	1.32	-0.132	-2.24
RSBN1 (UniProt Q5VWQ0)	-0.421	-0.198	-0.387
RSBN1L (UniProt Q6PCB5)	-0.0324	-0.225	0.113
RSL1D1 (UniProt O76021)	0.414	-0.108	-0.48
RSL24D1 (UniProt Q9UHA3)	1.21	0.133	-3.91
RSPRY1 (UniProt Q96DX4)	0.302	0.576	-0.152
RSRC1 (UniProt Q96IZ7)	1.06	0.987	1.14
RSRC2 (UniProt Q7L4I2)	0.668	0.164	1.03
RSU1 (UniProt Q15404)	-0.465	-0.369	-1.38
RTCA (UniProt O00442)	0.213	0.21	-0.695
RTCB (UniProt Q9Y3I0)	0.445	0.0607	-1.21
RTF1 (UniProt Q92541)	0.13	0.0546	-0.323
RTFDC1 (UniProt Q9BY42)	-1.39	-0.367	-1.48
RTKN (UniProt Q9BST9)	-0.183	-0.084	-0.395
RTN3 (UniProt O95197)	0.112	0.0244	0.525
RTN4 (UniProt Q9NQC3)	0.244	0.711	0.413
RTN4IP1 (UniProt Q8WWV3)	-0.324	-0.26	0.0315
RTN4RL2 (UniProt Q86UN3)	-1.87	-1.25	0.417
RTTN (UniProt Q86VV8)	-0.0275	-0.0536	-0.117

Target	thermal stability z-score (lipoamide; [1])	thermal stability z-score (lipoamide; arsenate co-treatment: none)	thermal stability z-score (potassium arsenate)
RUFY1 (UniProt Q96T51)	-0.702	-0.00916	0.39
RUFY2 (UniProt Q8WXA3)	-0.19	-0.0853	-0.0152
RUSC1 (UniProt Q9BVN2)	0.0753	0.00504	-0.0614
RUVBL1 (UniProt Q9Y265)	-0.0828	0.115	-0.662
RUVBL2 (UniProt Q9Y230)	-0.408	-0.0917	-0.75
RWDD1 (UniProt Q9H446)	0.432	0.421	0.471
RWDD2B (UniProt P57060)	0.0612	-0.0257	-0.0179
RWDD4 (UniProt Q6NW29)	-0.526	-0.0479	0.261
RXRA (UniProt P19793)	0.08	0.208	-0.255
RXRB (UniProt P28702)	0.117	0.096	-0.458
RYBP (UniProt Q8N488)	-0.607	-0.174	-0.269
S100A4 (UniProt P26447)	-0.414	-0.145	-1.43
S100A6 (UniProt P06703)	1.78	0.967	1.15
S100A10 (UniProt P60903)	1.65	1.54	0.372
S100A11 (UniProt P31949)	1.19	1.12	0.639
S100A13 (UniProt Q99584)	0.758	1.06	0.67
S100A16 (UniProt Q96FQ6)	1.33	1.29	0.517
S100P (UniProt P25815)	0.367	-0.088	0.0845
SAAL1 (UniProt Q96ER3)	0.357	-0.345	0.336
SAC3D1 (UniProt A6NKF1)	-1.55	-1.63	-1.27
SACM1L (UniProt Q9NTJ5)	-0.145	-0.499	0.448
SACS (UniProt Q9NZJ4)	-0.17	-0.0653	0.0609
SAE1 (UniProt Q9UBE0)	-0.694	-0.826	-0.458
